# Tests used:
# oral bioavailability = conditions: in vivo
# [1] = tested on: advanced solid tumors or B-cell lymphomas; experiment: phase 1 part of phase 1/2 study (NCT01897571), tazemetostat monotherapy
# [2] = tested on: relapsed or refractory diffuse large B-cell lymphoma (DLBCL) or follicular lymphoma (FL); experiment: phase 2 study (NCT01897571): objective response to tazemetostat by NGS molecular profile of archive tumor; format: in vivo, human
# Description: […]. […] The primary study endpoint is objective overall response rate.
# During screening, archive tumor- and/or plasma-derived circulating tumor DNA (ctDNA) samples were obtained. Archive tumor was analyzed prospectively for EZH2-activating mutations Y646F, Y646N, Y646X (Y646H, Y646C, and Y646S), A682G, and A692V using a cobas® EZH2 Mutation Test (Roche Molecular Systems, Inc., Pleasanton, CA, USA). Next generation sequencing (NGS) was performed retrospectively on DNA derived from archive tumor and plasma samples to identify somatic mutations, amplifications, and translocations using an NHL-specific 62-gene panel on the Illumina HiSeq 2500 platform (Illumina, Inc., San Diego, CA, USA) with 100 bp paired-end reads (Table 1).
# ctDNA was approximately 20,000 X for mutations and 3700 X for structural alterations. Sequencing data were aligned to the human reference sequence (hg19) and analyzed using validated cancer genome analysis algorithms (Personal Genome Diagnostics, Baltimore, MD, USA). EZH2 mutation detection rates in archive tumor were ~12% in DLBCL and 19% in FL in the total phase 2 cohort (Table 2), consistent with previous reports.
# [3] = Genetic Profile 1, patients matching profile (19)
# [4] = Genetic Profile 1, patients not matching profile (73)
# [5] = Genetic Profile 2, patients matching profile (26)
# [6] = Genetic Profile 2, patients not matching profile (66)
structure (smiles),measurement,setting,value
CCN(c1cc(-c2ccc(CN3CCOCC3)cc2)cc(C(=O)NCc2c(C)cc(C)[nH]c2=O)c1C)C1CCOCC1 [tazemetostat],oral bioavailability,oral bioavailability,orally bioavailable
same,safety profile as monotherapy,"[1]; monotherapy, patients",acceptable
same,objective responses,"[1]; phase 1, adult patients, tumors exhibiting mutated or wild-type EZH2",objective responses to tazemetostat were observed
same,"Nonresponder (SD/PF/UK), %",[2]; [3],42.1%
same,"Responder (CR/PR), %",[2]; [3],57.9%
same,"Nonresponder (SD/PF/UK), %",[2]; [4],80.8%
same,"Responder (CR/PR), %",[2]; [4],19.2%
same,"Nonresponder (SD/PD/UK), %",[2]; [5],42.3%
same,"Responder (CR/PR), %",[2]; [5],57.7%
same,"Nonresponder (SD/PD/UK), %",[2]; [6],84.8%
same,"Responder (CR/PR), %",[2]; [6],15.2%
same,Response preference,"[2]; gene EZH2, P-value 0.0253",Mutant
same,Response preference,"[2]; gene MYD88 L273P, P-value 0.0841",Mutant
same,Response preference,"[2]; gene STAT6, P-value 0.0753",Mutant
same,objective overall response rate,[2]; patients matching multigene predictor: wild-type MYC and/or HIST1H1E with mutated STAT6 and/or MYD88 in archive tumor (11/19),~ 58%
same,objective overall response rate,[2]; patients not matching the multigene predictor (14/73),~19%

# From US20230201212A1, “INHIBITORS OF EZH2 AND METHODS OF USE THEREOF” (Epizyme, Inc., priority 2017, published 2023)
